Source: article PMC9549968 (The Journal of investigative dermatology, 2021)
Positions of bridges follow the written chain, without caps; N, C: chain ends. No end group written: not given here.

Experiments:
[1] = system: Mrgpra3-Cre-GFP neurons; assay: Whole-cell patch-clamp recording of Mrgpra3-Cre-GFP neurons; format: cell-based, mouse; conditions: n=8/8
[2] = system: mice; assay: Itch behavior: scratching bouts after intradermal injection; format: in vivo, mouse; conditions: for itch-responses (scratching bouts): mice, intradermal injection 1mM, 10μL, versus saline, n=8-12
[3] = target: T1, Mrgpra3 (Mus musculus, UniProt Q91WW3); assay: FLIPR calcium imaging, HEK293 expressing Mrgpra3; format: cell-based
T1 sequence (Q91WW3 1-302): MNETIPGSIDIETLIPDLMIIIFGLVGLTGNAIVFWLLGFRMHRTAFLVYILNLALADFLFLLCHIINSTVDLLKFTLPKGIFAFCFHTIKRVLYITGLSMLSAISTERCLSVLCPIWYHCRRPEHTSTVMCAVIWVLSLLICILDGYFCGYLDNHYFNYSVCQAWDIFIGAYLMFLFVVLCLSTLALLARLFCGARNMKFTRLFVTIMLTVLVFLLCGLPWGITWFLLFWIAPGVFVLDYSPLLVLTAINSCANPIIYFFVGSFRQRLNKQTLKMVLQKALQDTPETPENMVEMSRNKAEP

[4] = target: T2, Mrgprb2 (Mus musculus, UniProt Q3KNA1); assay: FLIPR calcium imaging, HEK293 expressing Mrgprb2; format: cell-based
T2 sequence (Q3KNA1 1-338): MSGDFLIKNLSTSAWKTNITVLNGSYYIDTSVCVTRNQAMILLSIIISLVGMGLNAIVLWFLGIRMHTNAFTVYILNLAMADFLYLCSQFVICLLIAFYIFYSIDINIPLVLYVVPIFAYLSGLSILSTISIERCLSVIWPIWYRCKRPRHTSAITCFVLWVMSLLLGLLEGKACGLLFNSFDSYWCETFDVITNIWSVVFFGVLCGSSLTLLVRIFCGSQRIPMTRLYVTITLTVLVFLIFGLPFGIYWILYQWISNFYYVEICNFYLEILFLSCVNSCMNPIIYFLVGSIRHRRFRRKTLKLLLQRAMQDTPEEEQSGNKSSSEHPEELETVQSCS

[5] = system: DRG neurons; assay: Calcium imaging of cultured DRG neurons; format: cell-based, mouse; conditions: 352 neurons imaged
[6] = target: MRGPRX1 (Homo sapiens, UniProt Q96LB2); assay: FLIPR calcium imaging, HEK293 expressing MRGPRX1; format: cell-based; conditions: SEM
[7] = target: T3, Mrgpra2b (Mus musculus, UniProt Q91WW4); assay: FLIPR calcium imaging, HEK293 expressing Mrgpra2b; format: cell-based
T3 sequence (Q91WW4 1-305): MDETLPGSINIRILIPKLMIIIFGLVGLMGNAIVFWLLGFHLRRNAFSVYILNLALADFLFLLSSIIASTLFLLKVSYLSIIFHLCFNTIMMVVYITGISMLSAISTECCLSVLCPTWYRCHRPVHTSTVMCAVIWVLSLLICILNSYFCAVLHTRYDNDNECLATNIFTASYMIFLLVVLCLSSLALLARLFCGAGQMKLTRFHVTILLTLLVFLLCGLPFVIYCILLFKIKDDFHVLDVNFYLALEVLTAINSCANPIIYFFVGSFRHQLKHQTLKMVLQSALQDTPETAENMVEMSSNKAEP

[8] = target: T4, Mrgprc11 (Mus musculus, UniProt Q8CIP3); assay: FLIPR calcium imaging, HEK293 expressing Mrgprc11; format: cell-based
T4 sequence (Q8CIP3 1-322): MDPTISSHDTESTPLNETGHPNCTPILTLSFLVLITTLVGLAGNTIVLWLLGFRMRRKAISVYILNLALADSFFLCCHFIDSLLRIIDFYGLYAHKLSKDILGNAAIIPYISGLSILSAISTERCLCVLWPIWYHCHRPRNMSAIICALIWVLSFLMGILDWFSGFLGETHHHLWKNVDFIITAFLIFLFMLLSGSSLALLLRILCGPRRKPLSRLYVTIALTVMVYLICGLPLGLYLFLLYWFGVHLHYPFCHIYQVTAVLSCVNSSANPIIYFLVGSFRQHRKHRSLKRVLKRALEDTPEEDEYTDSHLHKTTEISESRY

[9] = target: T5, Mrgpra1 (Mus musculus, UniProt Q91WW5); assay: FLIPR calcium imaging, HEK293 expressing Mrgpra1; format: cell-based; conditions: SEM
T5 sequence (Q91WW5 1-304): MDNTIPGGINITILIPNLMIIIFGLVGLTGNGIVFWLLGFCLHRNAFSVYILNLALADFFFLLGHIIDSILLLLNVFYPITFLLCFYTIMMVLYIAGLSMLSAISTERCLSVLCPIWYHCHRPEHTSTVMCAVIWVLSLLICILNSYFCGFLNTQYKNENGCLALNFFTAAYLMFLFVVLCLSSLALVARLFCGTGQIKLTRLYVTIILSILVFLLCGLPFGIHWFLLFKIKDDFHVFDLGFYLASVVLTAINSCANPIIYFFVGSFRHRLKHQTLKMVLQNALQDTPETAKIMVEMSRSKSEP

[10] = target: T6, MRGPRX2 (Homo sapiens, UniProt Q96LB1); assay: FLIPR calcium imaging, HEK293 expressing MRGPRX2; format: cell-based; conditions: SEM
T6 sequence (Q96LB1 1-330): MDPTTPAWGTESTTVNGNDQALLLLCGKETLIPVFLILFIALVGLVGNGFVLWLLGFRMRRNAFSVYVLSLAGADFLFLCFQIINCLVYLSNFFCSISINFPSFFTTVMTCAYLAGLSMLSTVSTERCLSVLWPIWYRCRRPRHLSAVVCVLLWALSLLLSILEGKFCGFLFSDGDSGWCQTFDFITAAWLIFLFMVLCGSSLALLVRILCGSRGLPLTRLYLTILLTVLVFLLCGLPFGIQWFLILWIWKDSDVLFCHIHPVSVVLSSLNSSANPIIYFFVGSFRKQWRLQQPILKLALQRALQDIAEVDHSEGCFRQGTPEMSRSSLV

[11] = system: LAD2 cells
[12] = target: MRGPRX3 (Homo sapiens, UniProt Q96LB0); assay: FLIPR calcium imaging, HEK293 expressing MRGPRX3; format: cell-based
MRGPRX3, sequence (Q96LB0 whole entry): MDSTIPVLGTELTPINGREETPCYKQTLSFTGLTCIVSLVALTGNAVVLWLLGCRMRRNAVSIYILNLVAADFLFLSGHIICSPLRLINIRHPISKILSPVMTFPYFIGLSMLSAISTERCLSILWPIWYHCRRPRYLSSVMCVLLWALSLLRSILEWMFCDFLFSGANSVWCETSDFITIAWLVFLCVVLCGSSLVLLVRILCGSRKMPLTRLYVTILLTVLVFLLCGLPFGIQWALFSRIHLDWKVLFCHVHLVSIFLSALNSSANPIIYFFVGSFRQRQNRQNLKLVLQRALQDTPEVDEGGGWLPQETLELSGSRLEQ

MRGPRX1, sequence (Q96LB2 whole entry): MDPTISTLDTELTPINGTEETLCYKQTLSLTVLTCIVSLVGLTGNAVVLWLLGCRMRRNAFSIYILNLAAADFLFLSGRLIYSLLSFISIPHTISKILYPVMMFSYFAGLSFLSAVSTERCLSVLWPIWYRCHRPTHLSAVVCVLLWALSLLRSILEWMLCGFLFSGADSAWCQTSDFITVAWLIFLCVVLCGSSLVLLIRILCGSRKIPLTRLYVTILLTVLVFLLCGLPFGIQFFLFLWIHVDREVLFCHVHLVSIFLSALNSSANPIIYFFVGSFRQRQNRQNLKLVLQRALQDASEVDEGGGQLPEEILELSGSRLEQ

## CCN(CC)CCCC(C)Nc1ccnc2cc(Cl)ccc12 (stereo not drawn) [CQ, chloroquine, reference compound]
[1]; 100μM
  action potential discharges in Mrgpra3-Cre-GFP neurons: evoked action potential discharges

## Defb1: recombinant mouse β-defensin, constitutively highly expressed in skin (DQYKCLQHGGFCLRSSCPSNTKLQGTCKPDKPNCCKS; ends and bridges not checked; cysteine pairing not given here; UniProt P56386 33-69, looked up)
[2]
  itch-responses (scratching bouts): not significantly different from saline injection

## FLPKTLRKFFCRIRGGRCAVLNCLGKEEQIGRCSNSGRKCCRKKK (disulfide 11-40, 18-33, 23-41) [Defb14]
[2]; Mcpt5-Cre::Rosa-stop-DTA mice versus wild-type controls, 1mM, p=0.87
  Defb14 induced scratching in mast-cell deficient mice: did not attenuate
[2]; Mrgpra3-Cre::Rosa-stop-DTA mice (n=14) versus controls (n=12), 1mM, p=0.007
  scratching responses in mice with ablated Mrgpra3-neurons: significantly attenuated
[2]
  itch-responses (scratching bouts): evoked the most intense itch phenotype
[3]
  EC50: 1000 ± 180 nM
[4]
  EC50: 1700 ± 450 nM
[5]; cultured mouse DRG neurons, AAV9-GCaMP6f
  Defb14-responsive neurons that responded to CQ: 46/55
[5]; dissociated mouse DRG neurons expressing GCaMP6f
  calcium response of DRG neurons: induced calcium increases in DRG neurons
[6]
  EC50: 610 ± 170 nM
[7]
  EC50: 19400 ± 8600 nM
[1]; 1μM
  action potential discharges in Mrgpra3-Cre-GFP neurons: evoked action potential discharges
[8]
  EC50: 21600 ± 11700 nM
[9]
  EC50: 620 ± 160 nM

## GIGDPVTCLKSGAICHPVFCPRRYKQIGTCGLPGTKCCKKP (disulfide 8-37, 15-30, 20-38) [DEFB4]
[10]
  EC50: 17500 ± 3800 nM
[6]
  EC50: 58300 ± 18000 nM

## GIINTLQKYYCRVRGGRCAVLSCLPKEEQIGKCSTRGRKCCRRKK (disulfide 11-40, 18-33, 23-41) [DEFB103]
[10]
  EC50: 420 ± 110 nM
[11]; peptide 1μM, compared with DEFB4
  activation of LAD2 cells, calcium imaging: activated more LAD2 cells and evoked stronger calcium influx than the DEFB4
[11]; ratio of EC50s, LAD2 calcium imaging
  potency of DEFB103 relative to DEFB4 in LAD2 cells: about 10 fold
[6]
  EC50: 280 ± 50 nM
[12]
  EC50: 7400 ± 1900 nM

## KKINNPVSCLRKGGRCWNRCIGNTRQIGSCGVPFLKCCKRK (disulfide 9-37, 16-30, 20-38) [Defb3]
[2]
  itch-responses (scratching bouts): evoked a strong itch phenotype
[4]
  EC50: 11500 ± 3500 nM
[9]
  EC50: 2700 ± 600 nM
